According to patent US9090632B2, “Bicyclic oxazole and thiazole compounds and their use as allosteric modulators of mGluR5 receptors” (Vanderbilt University, priority 2010, dated 2015):

Tests used:
[1] = molecular target: human mGluR5 (Homo sapiens, UniProt P41594); assay: Cell-based functional Ca2+ mobilization assay, potentiation of glutamate EC20 response (H10H cell-line); conditions: H10H cell-line expressing recombinant human mGluR5; for Emax / Emax (%): in presence of glutamate EC20, normalized to maximal glutamate response; for EC50 / pEC50: potentiation in presence of glutamate EC20
Chain of human mGluR5 (P41594 21-1180 isoform P41594-2 limits assumed): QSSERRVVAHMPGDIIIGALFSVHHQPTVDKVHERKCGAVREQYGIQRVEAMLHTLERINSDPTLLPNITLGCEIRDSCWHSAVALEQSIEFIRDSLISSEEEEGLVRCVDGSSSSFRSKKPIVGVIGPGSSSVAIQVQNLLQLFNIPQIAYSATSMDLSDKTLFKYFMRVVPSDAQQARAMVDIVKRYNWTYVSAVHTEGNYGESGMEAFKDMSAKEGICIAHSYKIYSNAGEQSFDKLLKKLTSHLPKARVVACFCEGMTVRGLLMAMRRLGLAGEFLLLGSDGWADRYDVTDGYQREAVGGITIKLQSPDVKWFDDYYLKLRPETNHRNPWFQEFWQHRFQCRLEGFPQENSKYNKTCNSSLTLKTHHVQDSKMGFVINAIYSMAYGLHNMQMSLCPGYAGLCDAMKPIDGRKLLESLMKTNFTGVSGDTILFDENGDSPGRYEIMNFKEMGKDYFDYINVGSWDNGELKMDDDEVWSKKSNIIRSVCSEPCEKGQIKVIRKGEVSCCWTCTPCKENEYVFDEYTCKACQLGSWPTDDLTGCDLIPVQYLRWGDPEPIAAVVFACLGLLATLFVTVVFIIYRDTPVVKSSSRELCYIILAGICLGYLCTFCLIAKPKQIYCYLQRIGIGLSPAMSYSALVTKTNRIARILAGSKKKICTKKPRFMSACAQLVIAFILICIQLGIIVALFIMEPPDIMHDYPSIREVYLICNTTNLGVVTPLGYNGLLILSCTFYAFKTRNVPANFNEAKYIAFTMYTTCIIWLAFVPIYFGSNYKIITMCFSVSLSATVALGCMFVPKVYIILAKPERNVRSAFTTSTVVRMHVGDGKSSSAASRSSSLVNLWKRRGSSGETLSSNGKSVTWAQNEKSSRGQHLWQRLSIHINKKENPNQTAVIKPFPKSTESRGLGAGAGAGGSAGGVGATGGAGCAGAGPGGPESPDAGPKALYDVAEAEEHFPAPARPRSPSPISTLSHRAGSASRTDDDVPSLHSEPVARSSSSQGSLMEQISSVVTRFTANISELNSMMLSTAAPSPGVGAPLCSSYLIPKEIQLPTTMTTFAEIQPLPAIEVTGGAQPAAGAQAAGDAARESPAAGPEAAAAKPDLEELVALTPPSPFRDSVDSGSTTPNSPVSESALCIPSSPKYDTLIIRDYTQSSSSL
Procedure: Human embryonic kidney (HEK) cells transfected with rat mGluR5 were plated in clear bottom assay plates for assay in a Functional Drug Screening System (FDSS). In the alternative assay, HEK cells transfected with human mGluR5 were plated for assay in the FDSS. In some cases the HEK cells transfected with human mGluR5 are the H10H cell line. Alternatively, the HEK cells transfected with human mGluR5 are the H12H cell line. […] The cells were loaded with a Ca^2+-sensitive fluorescent dye (e.g., Fluo-4), and the plates were washed and placed in the FDSS instrument. After establishment of a fluorescence baseline for about three seconds, the compounds of the present invention were added to the cells, and the response in cells was measured. Five minutes later, an mGluR5 agonist (e.g., glutamate, 3,5-dihydroxyphenylglycine, or quisqualate) was added to the cells, and the response of the cells was measured. Potentiation of the agonist response of mGluR5 by the compounds in the present invention was observed as an increase in response to non-maximal concentrations of agonist (here, glutamate) in the presence of compound compared to the response to agonist in the absence of compound.
The above described assay can be operated in two modes. In the first mode, a range of concentrations of the present compounds were added to cells, followed by a single fixed concentration of agonist. If a compound acted as a potentiator, an EC50 value for potentiation and a maximum extent of potentiation by the compound at this concentration of agonist was determined by non-linear curve fitting. In the second mode, several fixed concentrations of the present compounds were added to various wells on a plate, followed by a range of concentrations of agonist for each concentration of present compound; the EC50 values for the agonist at each concentration of compound were determined by non-linear curve fitting. A decrease in the EC50 value of the agonist with increasing concentrations of the present compounds (a leftward shift of the agonist concentration-response curve) is an indication of the degree of mGluR5 potentiation at a given concentration of the present compound. An increase in the EC50 value of the agonist with increasing concentrations of the present compounds (a rightward shift of the agonist concentration-response curve) is an indication of the degree of mGluR5 antagonism at a given concentration of the present compound. The second mode also indicates whether the present compounds also affect the maximum response to mGluR5 to agonists.
Human mGluR5a cDNA in pCMV6-XL6 mammalian expression plasmid was purchased from OriGene Technologies, Inc. (catalogue number SC326357) and subcloned into pcDNA3.1(−). Human embryonic kidney (HEK) 293A cells were then transfected with human mGluR5a pcDNA3.1(−) using LipofectAmine 2000 (Invitrogen) and monoclones were selected and tested for functional response using a Ca^2+ mobilization assay. Monoclones were named for the species (“H” for human) plus the location on the plate (e.g. “10H”).
HEK cells transfected with the human mGluR5a receptor were plated at 15,000 cells/well in clear-bottomed poly-D-lysine-coated assay plates (BD Falcon) in glutamate-glutamine-free growth medium and incubated overnight at 37° C. and 5% CO2. The cell-line used to obtain the data reported herein was the H10H cell-line expressing the human mGluR5 receptor. Although the H10H cell-line was used to obtain the data shown herein, the H12H cell-line expressing the human mGluR5 receptor can also be used in these assays. The following day, the growth medium was removed and the cells were washed with assay buffer containing 1× Hank's balanced salt solution (Invitrogen, Carlsbad, Calif.), 20 mM HEPES, 2.5 mM probenecid, pH 7.4 and left with 20 μL of this reagent. Following this step, the cells were loaded with calcium indicator dye, fluo-4 AM, to a final concentration of 2 μM and incubated for 40-45 min at 37° C. […]

Row | Emax [1] | EC50 [1] | melting point | Emax (%) [1] | pEC50 [1] | Structure (SMILES)
1 | 80% | 112 nM | 66 °C | – | – | O=C(c1cccc(F)c1)N1CCc2nc(COc3ccccc3)oc2C1 [Example B7, 5-[(3-fluorophenyl)carbonyl]-2-(phenoxymethyl)-4,5,6,7-tetrahydro[1,3]oxazolo[5,4-c]pyridine]
2 | 80% | 251 nM | 204.7 °C | – | – | O=C(c1ccccc1)N1CCc2nc(COc3cccc(F)c3)oc2C1 [Example B26]
3 | 76% | 186 nM | 74.7 °C | – | – | O=C(c1cccc(F)c1)N1CCc2nc(COc3cccc(F)c3)oc2C1 [Example B27]
4 | 44% | 148 nM | 70 °C | – | – | O=C(c1cc(F)cc(F)c1)N1CCc2nc(COc3cccc(F)c3)oc2C1 [Example B30]
5 | 67% | 2950 nM | 113.1 °C | – | – | O=C(c1ccc(F)cn1)N1CCc2nc(COc3ccccc3)oc2C1 [Example B40]
6 | 49% | 3720 nM | 98.3 °C | – | – | O=C(c1cncc(F)c1)N1CCc2nc(COc3ccccc3)oc2C1 [Example B65]
7 | 49% | 3020 nM | > 300 °C | – | – | O=C(c1cncc(F)c1)N1CCc2nc(COc3cccc(F)c3)oc2C1 [Example B67]
8 | 21% | 331 nM | 158.2 °C | – | – | Cc1oncc1C(=O)N1CCc2nc(COc3ccccc3)oc2C1 [Example B71]
9 | 71% | 331 nM | 90.1 °C | – | – | O=C(c1ccc(F)cc1F)N1CCc2nc(COc3cccc(F)c3)oc2C1 [Example B78]
10 | 57% | 219 nM | > 300 °C | – | – | N#Cc1cccc(C(=O)N2CCc3nc(COc4cccc(F)c4)oc3C2)c1 [Example B85]
11 | 61% | 2190 nM | 102.9 °C | – | – | N#Cc1ccc(C(=O)N2CCc3nc(COc4cccc(F)c4)oc3C2)cc1F [Example B89]
12 | 68% | 1120 nM | 128.7 °C | – | – | O=C(c1ccc(F)nc1)N1CCc2nc(COc3ccccc3)oc2C1 [Example B94]
13 | 81% | 1050 nM | 147.7 °C | – | – | N#Cc1cc(C(=O)N2CCc3nc(COc4cccc(F)c4)oc3C2)ccc1F [Example B97]
14 | 67% | 3310 nM | 109.8 °C | – | – | O=C(c1ncc(F)cc1F)N1CCc2nc(COc3cccc(F)c3)oc2C1 [Example B101]
15 | 40% | > 10000 nM | 78.9 °C | – | – | O=C(c1ccc(F)cc1)N1CCc2nc(COc3cccc(C(F)(F)F)c3)oc2C1 [Example B127]
16 | 26% | > 30200 nM | – | – | – | O=C(c1c[nH]cn1)N1CCc2nc(COc3ccccc3)oc2C1 [Example B154]
17 | – | – | – | 45% | <5 | Cc1cc(C(=O)N2CCc3nc(COc4ccccc4)oc3C2)no1 [Example B157]

The remaining lines, values behind:

Row | Structure (SMILES) | Emax [1] | EC50 [1] | melting point | Emax (%) [1] | pEC50 [1]
18 | O=C(c1ccccc1F)N1CCc2nc(COc3ccccc3)sc2C1 [Example B5, 5-[(2-fluorophenyl)carbonyl]-2-(phenoxymethyl)-4,5,6,7-tetrahydro[1,3]thiazolo[5,4-c]pyridine] | 64% | 871 nM | 124.1 to 125.3 °C | – | –
19 | O=C(N1CCc2nc(COc3ccccc3)oc2C1)C(F)(F)F [Example B34, 2-(phenoxymethyl)-5-(trifluoroacetyl)-4,5,6,7-tetrahydro[1,3]oxazolo[5,4-c]pyridine] | 10% | 891 nM | 71.8 °C | – | –
20 | O=C(c1ccc(F)cc1)N1CCc2nc(COc3ccc(O)cc3)oc2C1 [Example B35, 4-({5-[(4-fluorophenyl)carbonyl]-4,5,6,7-tetrahydro[1,3]oxazolo[5,4-c]pyridin-2-yl}methoxy)phenol] | 57% | > 10000 nM | 137.4 °C | – | –
21 | N#Cc1cccc(C(=O)N2CCc3nc(COc4ccccc4)oc3C2)c1 [Example B43] | 64.5% | 295 nM | 130 °C | – | –
22 | N#Cc1ccc(C(=O)N2CCc3nc(COc4ccccc4)oc3C2)cc1 [Example B49] | 58% | 3090 nM | 132.2 °C | – | –
23 | Cc1ccc(OCc2nc3c(o2)CN(C(=O)c2ccc(F)cc2)CC3)cc1 [Example B70] | 56% | > 10000 nM | 137.2 °C | – | –
24 | O=C(c1ccc(OC(F)(F)F)cc1)N1CCc2nc(COc3ccccc3)oc2C1 [Example B75] | 70% | 933 nM | > 300 °C | – | –
25 | O=C(c1ccc2c(c1)OCO2)N1CCc2nc(COc3ccccc3)oc2C1 [Example B76] | 75% | 708 nM | 121.3 °C | – | –
26 | O=C(c1ccc2ccccc2n1)N1CCc2nc(COc3ccccc3)oc2C1 [Example B79] | 59% | 1820 nM | 107.6 °C | – | –
27 | CN(C)c1cccc(C(=O)N2CCc3nc(COc4ccccc4)oc3C2)c1 [Example B83] | 67% | 501 nM | 102.9 °C | – | –
28 | Cn1cccc1C(=O)N1CCc2nc(COc3ccccc3)oc2C1 [Example B84] | 53% | 257 nM | 78.5 °C | – | –
29 | Cc1nc(C(=O)N2CCc3nc(COc4ccccc4)oc3C2)c(C)o1 [Example B86] | 53% | > 10000 nM | 104.4 °C | – | –
30 | O=C(c1ccno1)N1CCc2nc(COc3ccccc3)oc2C1 [Example B88] | 53% | 1780 nM | 92.5 °C | – | –
31 | O=C(c1cnn2ccccc12)N1CCc2nc(COc3ccccc3)oc2C1 [Example B95] | 64% | > 10000 nM | 130.8 °C | – | –
32 | N#Cc1cc(C(=O)N2CCc3nc(COc4ccccc4)oc3C2)ccc1F [Example B98] | 73% | 741 nM | 128.2 °C | – | –
33 | O=C(c1cccc2c1OCCO2)N1CCc2nc(COc3ccccc3)oc2C1 [Example B99] | 57% | 776 nM | 55.5 °C | – | –
34 | O=C(c1coc2ccccc12)N1CCc2nc(COc3ccccc3)oc2C1 [Example B146] | 61% | 407 nM | – | – | –
35 | O=C(c1n[nH]c2ncccc12)N1CCc2nc(COc3ccccc3)oc2C1 [Example B147] | 74% | 363 nM | – | – | –
36 | O=C(c1cnccn1)N1CCc2nc(COc3ccccc3)oc2C1 [Example B148] | – | – | – | 43% | <5
37 | O=C(c1ccc(F)cc1)N1CCc2nc(COc3cnccn3)oc2C1 [Example B152] | 36% | > 10000 nM | – | – | –
38 | O=C(c1ncc[nH]1)N1CCc2nc(COc3ccccc3)oc2C1 [Example B153] | 32% | > 30200 nM | – | – | –
39 | O=C(Cc1c[nH]cn1)N1CCc2nc(COc3ccccc3)oc2C1.O=C(O)C(F)(F)F [Example B155] | – | – | – | 30% | <4.52
40 | Cn1cncc1C(=O)N1CCc2nc(COc3ccccc3)oc2C1 [Example B158] | 27% | > 30200 nM | – | – | –
41 | O=C(c1nccs1)N1CCc2nc(COc3ccccc3)oc2C1 [Example B159] | – | – | – | 23% | <4.52
42 | O=C(c1ncccn1)N1CCc2nc(COc3ccccc3)oc2C1 [Example B160] | – | – | – | 16% | <4.52
43 | Cc1nc(C(=O)N2CCc3nc(COc4ccccc4)oc3C2)no1 [Example B161] | 20% | > 10000 nM | – | – | –
44 | O=C(c1cccnn1)N1CCc2nc(COc3ccccc3)oc2C1 [Example B162] | 17% | > 30200 nM | – | – | –
